Tests used:
hA3AR = biological target: T1, hA3AR (Homo sapiens, UniProt P0DMS8); assay: Competition binding, [125I]AB-MECA, hA3 CHO cell membranes; conditions: for Ki: displacement of [125I]AB-MECA, hA3 CHO cells, mean ± SEM of four assays; for inhibition at 1 µM: 1 µM compound, [125I]AB-MECA binding, read-out: I% hA3 (percentage of inhibition)
T1 construct: host or cells: CHO cells
T1 sequence (P0DMS8 1-318): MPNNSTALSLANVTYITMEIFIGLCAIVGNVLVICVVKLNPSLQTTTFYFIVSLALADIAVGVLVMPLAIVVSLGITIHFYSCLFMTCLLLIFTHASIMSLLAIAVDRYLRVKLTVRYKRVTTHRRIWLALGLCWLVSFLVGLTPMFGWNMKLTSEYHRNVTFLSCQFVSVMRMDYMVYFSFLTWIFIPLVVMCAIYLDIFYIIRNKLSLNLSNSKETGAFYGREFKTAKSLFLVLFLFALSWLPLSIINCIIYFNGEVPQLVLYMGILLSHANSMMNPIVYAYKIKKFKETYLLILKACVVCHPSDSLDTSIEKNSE
Method: (§1) CHO cells transfected with hA1, hA2A, hA2B and hA3 ARs (Perkin Elmer, Boston, MA, USA) were grown adherently and maintained in Dulbecco’s modified Eagle’s medium with nutrient mixture F12, containing 10% fetal calf serum, penicillin (100 U/mL), streptomycin (100 μg/mL), L-glutamine (2 mM) and geneticine (G418; 0.2 mg/mL), at 37 °C, in 5% CO2/95% air, until their use in cAMP assays. For membrane preparation, the culture medium was removed, and the cells were washed with phosphate-buffered saline and scraped off T75 flasks in ice-cold hypotonic buffer (5 mM Tris HCl, 1 mM EDTA, pH 7.4). The cell suspension was homogenized with a Polytron, centrifuged for 30 min at 40,000× g, at 4 °C, and the resulting membrane pellet was used for competition binding experiments.
(§2) All synthesized compounds were tested for their affinity to hA1, hA2A and hA3 ARs. Competition experiments to hA1AR were carried out by incubating 1 nM [^3H]-8-cyclopentyl-1,3-dipropylxanthine ([^3H]-DPCPX) with membrane suspension (50 μg of protein/100 μL) and different concentrations of the examined compounds at 25 °C for 90 min in 50 mM Tris HCl, pH 7.4. Non-specific binding was defined as binding in the presence of 1 μM DPCPX and was always <10% of the total binding. Inhibition experiments to hA2A ARs were performed by incubating the radioligand [^3H]-4-(-2-[7-amino-2-{2-furyl}{1,2,4}triazolo{2,3-a} {1,3,5}triazin-5-yl-amino]ethyl)phenol ([^3H]-ZM241385) (1 nM) with the membrane suspension (50 μg of protein/100 μL) and different concentrations of the examined compounds for 60 min, at 4 °C, in 50 mM Tris HCl (pH 7.4), 10 mM MgCl2. Non-specific binding was determined in the presence of ZM241385 (1 μM) and was about 20% of the total binding. Competition binding experiments to A3ARs were carried out by incubating the membrane suspension (50 μg of protein/100 μL) with 0.5 nM [^125I]-N6-(4-aminobenzyl)-N-methylcarboxamidoadenosine ([^125I]-ABMECA) in the presence of different concentrations of the examined compounds for an incubation time of 120 min, at 4 °C, in 50 mM Tris HCl (pH 7.4), 10 mM MgCl2, 1 mM EDTA. Non-specific binding was defined as binding in the presence of 1 μM ABMECA and was always <10% of the total binding. Bound and free radioactivity were separated by filtering the assay mixture through Whatman GF/B glass-fiber filters, using a Brandel cell harvester (Brandel Instruments, Unterföhring, Germany). The filter bound radioactivity was counted by Packard Tri Carb 2810 TR scintillation counter (Perkin Elmer).
(§3) The protein concentration was determined according to a Bio-Rad method, with bovine albumin as a standard reference. Inhibitory binding constant (Ki) values were calculated from those of IC50 according to the Cheng–Prusoff equation, Ki = IC50/(1 + [C*]/KD*), where [C*] is the concentration of the radioligand, and KD* its dissociation constant. Ki and IC50 values were calculated by non-linear regression analysis, using the equation for a sigmoid concentration-response curve (Graph-PAD Prism, San Diego, CA, USA).

hA2B AR = biological target: T2, hA2B AR (Homo sapiens, UniProt P29275); assay: cAMP assay in CHO cells expressing hA2B AR (stimulation of cAMP production); format: cell-based; conditions: for Emax at 1 µM: CHO, 1 µM compound, in comparison with NECA (1 µM = 100%), read-out: Efficacy hA2B (cAMP assay) (converted); for EC50: hA2B CHO cells, mean ± SEM of four assays
T2 construct: host or cells: CHO cells
T2 sequence (P29275 1-332): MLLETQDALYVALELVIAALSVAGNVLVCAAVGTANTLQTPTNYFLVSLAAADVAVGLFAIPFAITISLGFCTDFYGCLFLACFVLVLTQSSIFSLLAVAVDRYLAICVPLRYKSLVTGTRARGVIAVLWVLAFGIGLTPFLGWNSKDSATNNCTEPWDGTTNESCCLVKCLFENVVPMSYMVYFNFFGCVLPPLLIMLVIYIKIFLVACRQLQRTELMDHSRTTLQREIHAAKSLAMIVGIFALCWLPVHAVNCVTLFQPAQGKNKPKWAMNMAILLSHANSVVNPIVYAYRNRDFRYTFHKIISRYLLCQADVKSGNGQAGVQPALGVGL
Method: (§4) The amino-3,5-dicyanopyridines 1–21 were tested for their affinity at hA1, hA2A and hA3 ARs, stably transfected in Chinese Hamster Ovary (CHO) cells. Moreover, they were also studied as hA2B agonists by evaluating their stimulatory effect on cAMP production in CHO cells, stably expressing the hA2B AR. […] Due to their interesting pan profile, both compounds 1 and 5 were evaluated as AR agonists also at the hA2A and hA3 subtypes.
as §1
(§5) CHO cells transfected with hAR subtypes were washed with phosphate-buffered saline, detached with tripsine and centrifuged for 10 min at 200× g. Cells were seeded in a 96-well white half-area microplate (Perkin Elmer, Boston, USA) in a stimulation buffer composed of Hank Balanced Salt Solution, 5 mM HEPES, 0.5 mM Ro 20–1724, 0.1% BSA. The cAMP levels were then quantified by using the AlphaScreen cAMP Detection Kit (Perkin Elmer, Boston, MA, USA), following the manufacturer’s instructions. At the end of the experiments, the plates were read with a Perkin Elmer EnSight Multimode Plate Reader.

hA2AAR = biological target: T3, hA2AAR (Homo sapiens, UniProt P29274); assay: Competition binding, [3H]ZM241385, hA2A CHO cell membranes; conditions: displacement of [3H]ZM241385, hA2A CHO cells; mean ± SEM of four assays
T3 construct: host or cells: CHO cells
Method: as §1, §2, §3

hA1AR [1] = biological target: T4, hA1AR (Homo sapiens, UniProt P30542); assay: Competition binding, [3H]DPCPX, hA1 CHO cell membranes; conditions: displacement of [3H]DPCPX, hA1 CHO cells; mean ± SEM of four assays
T4 construct: host or cells: CHO cells
T4 sequence (P30542 1-326): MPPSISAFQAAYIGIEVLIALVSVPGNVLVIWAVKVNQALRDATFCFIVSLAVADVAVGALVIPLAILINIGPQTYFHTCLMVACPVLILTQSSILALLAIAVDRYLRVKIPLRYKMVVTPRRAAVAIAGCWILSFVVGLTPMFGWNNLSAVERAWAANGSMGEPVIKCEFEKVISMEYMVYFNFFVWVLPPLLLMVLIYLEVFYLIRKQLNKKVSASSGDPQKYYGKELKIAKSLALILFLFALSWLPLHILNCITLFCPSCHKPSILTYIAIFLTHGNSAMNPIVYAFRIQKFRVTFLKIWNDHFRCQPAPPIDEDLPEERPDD
Method: as §1, §2, §3

hA1AR [2] = biological target: T4, hA1AR; assay: Modulation of Forskolin-stimulated cAMP levels in hA1 CHO cells; format: cell-based
Method: as §4, §1, §5

T3 sequence (P29274 whole entry): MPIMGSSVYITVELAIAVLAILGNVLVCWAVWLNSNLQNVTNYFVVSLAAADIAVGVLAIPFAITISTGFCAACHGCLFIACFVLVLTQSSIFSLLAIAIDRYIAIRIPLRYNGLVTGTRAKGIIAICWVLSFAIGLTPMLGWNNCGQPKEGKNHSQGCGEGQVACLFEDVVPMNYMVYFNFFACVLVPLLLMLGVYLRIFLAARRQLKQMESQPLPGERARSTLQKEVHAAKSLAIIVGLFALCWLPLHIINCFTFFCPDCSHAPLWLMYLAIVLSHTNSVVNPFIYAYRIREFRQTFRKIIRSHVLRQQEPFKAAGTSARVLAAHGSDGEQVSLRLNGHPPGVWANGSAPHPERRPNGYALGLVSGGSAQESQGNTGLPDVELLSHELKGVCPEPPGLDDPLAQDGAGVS

SMILES | Ki (hA3AR) [nM] | Emax at 1 µM (hA2B AR) [%] | EC50 (hA2B AR) [nM] | Ki (hA2AAR) [nM] | melting point | Ki (hA1AR [1]) [nM] | inhibition at 1 µM (hA3AR) [%] | EC50 (hA1AR [2]; footnote c, mean ± SEM of four experiments, read-out: hA1AR EC50 or IC50, potency to modulate Forskolin-stimulated cAMP levels) [nM] | hA1AR Efficacy (hA1AR [2]; normalized: CCPA full agonist = 100%, DPCPX inverse agonist = −100%) [%] | hA1AR Profile (hA1AR [2]; pharmacological profile in cAMP assay)
N#Cc1c(SCc2ncc[nH]2)nc(N2CCCC2)c(C#N)c1-c1ccco1 [Compound 20] | 118 ± 11 | 8 | > 1000 | 89 ± 7 | 232 to 234 °C | 41 ± 3 | – | – | – | –
N#Cc1c(N)nc(SCc2csc(C(=O)NCCc3cnc[nH]3)n2)c(C#N)c1-c1ccco1 [Compound 17, 4-({[6-Amino-3,5-dicyano-4-(furan-2-yl)pyridin-2-yl]sulfanyl}methyl)-N-[2-(1H-imidazol-5-yl)ethyl]-1,3-thiazole-2-carboxamide] | 542 ± 48 | 6 | > 1000 | 279 ± 22 | – | 33 ± 3 | – | 38 ± 3 | 54 ± 4 | Partial Agonist
COc1ccc(-c2c(C#N)c(N)nc(SCc3ncc[nH]3)c2C#N)cn1 [Compound 9, 2′-Amino-6′-[(1H-imidazol-2-ylmethyl)sulfanyl]-6-methoxy-3,4′-bipyridine-3′,5′-dicarbonitrile] | 798 ± 72 | 7 | > 1000 | 377 ± 32 | 232 to 233 °C | 2.71 ± 0.18 | – | – | – | –
Cc1ccc(-c2c(C#N)c(N)nc(SCc3ncc[nH]3)c2C#N)o1 [Compound 3, 2-Amino-6-[(1H-imidazol-2-ylmethyl)sulfanyl]-4-(5-methylfuran-2-yl)pyridine-3,5-dicarbonitrile] | 279 ± 21 | 1 | > 1000 | 10.5 ± 0.9 | – | 10.1 ± 0.8 | – | – | – | –
N#Cc1c(N)nc(NCCc2c[nH]cn2)c(C#N)c1-c1ccco1 [Compound 13, 2-Amino-4-(furan-2-yl)-6-{[2-(1H-imidazol-4-yl)ethyl]amino}pyridine-3,5-dicarbonitrile] | – | 9 | > 1000 | 125 ± 10 | 242 °C (dec.) | 174 ± 14 | 6 | – | – | –
N#Cc1c(N)nc(SCc2ncc[nH]2)c(C#N)c1-c1ccc(O)nc1 [Compound 10, 2′-Amino-6-hydroxy-6′-[(1H-imidazol-2-ylmethyl)sulfanyl]-3,4′-bipyridine-3′,5′-dicarbonitrile] | – | 1 | > 1000 | 613 ± 53 | – | 149 ± 11 | 23 | – | – | –
N#Cc1c(N)nc(SCC(=O)NCc2ncc[nH]2)c(C#N)c1-c1ccco1 [Compound 14, 2-{[6-Amino-3,5-dicyano-4-(furan-2-yl)pyridin-2-yl]sulfanyl}-N-(1H-imidazol-2-ylmethyl)acetamide] | – | 6 | > 1000 | 817 ± 71 | – | 87 ± 7 | 33 | – | – | –

More lines, now with the values ahead:

Ki (hA3AR) [nM] | Emax at 1 µM (hA2B AR) [%] | EC50 (hA2B AR) [nM] | Ki (hA2AAR) [nM] | melting point | Ki (hA1AR [1]) [nM] | inhibition at 1 µM (hA3AR) [%] | EC50 (hA1AR [2]; footnote c, mean ± SEM of four experiments, read-out: hA1AR EC50 or IC50, potency to modulate Forskolin-stimulated cAMP levels) [nM] | hA1AR Efficacy (hA1AR [2]; normalized: CCPA full agonist = 100%, DPCPX inverse agonist = −100%) [%] | hA1AR Profile (hA1AR [2]; pharmacological profile in cAMP assay) | SMILES
290 ± 23 | 8 | > 1000 | 233 ± 19 | 293 to 294 °C | 190 ± 16 | – | – | – | – | Br.N#Cc1c(N)nc(SCc2ncc[nH]2)c(C#N)c1-c1ccc(CO)o1 [Compound 2, 2-Amino-4-[5-(hydroxymethyl)furan-2-yl]-6-[(1H-imidazol-2-ylmethyl)sulfanyl]pyridine-3,5-dicarbonitrile hydrobromide]
768 ± 63 | 1 | > 1000 | 394 ± 27 | – | 34 ± 3 | – | – | – | – | CC(=O)Nc1nc(SCc2ncc[nH]2)c(C#N)c(-c2ccco2)c1C#N [Compound 21, N-{3,5-dicyano-4-(furan-2-yl)-6-[(1H-imidazol-2-ylmethyl)sulfanyl]pyridin-2-yl}acetamide]
– | 58 | 63 ± 5 | 463 ± 38 | 244 to 245 °C (dec.) | 5.26 ± 0.48 | 19 | – | – | – | N#Cc1c(N)nc(SCc2ncc[nH]2)c(C#N)c1-c1cccnc1 [Compound 8, 2′-Amino-6′-[(1H-imidazol-2-ylmethyl)sulfanyl]-3,4′-bipyridine-3′,5′-dicarbonitrile]
279 ± 21 | 2 | > 1000 | 138 ± 11 | 221 to 222 °C | 393 ± 32 | – | – | – | – | N#Cc1c(NC2CCCC2)nc(SCc2ncc[nH]2)c(C#N)c1-c1ccco1 [Compound 18]
274 ± 23 | 42 | 2.32 ± 0.21 | 37 ± 3 | – | 0.77 ± 0.09 | – | – | – | – | N#Cc1c(N)nc(SCc2ncc[nH]2)c(C#N)c1-c1ccoc1 [Compound 4, 2-Amino-4-(furan-3-yl)-6-[(1H-imidazol-2-ylmethyl)sulfanyl]pyridine-3,5-dicarbonitrile]
221 ± 20 | 47 | 3.15 ± 0.29 | 55 ± 6 | 239 to 241 °C (dec.) | 1.01 ± 0.09 | – | – | – | – | N#Cc1c(N)nc(SCc2ncc[nH]2)c(C#N)c1-c1ccsc1 [Compound 6, 2-Amino-6-[(1H-imidazol-2-ylmethyl)sulfanyl]-4-(thiophen-3-yl)pyridine-3,5-dicarbonitrile]

From publication PMC9024521, “4-Heteroaryl Substituted Amino-3,5-Dicyanopyridines as New Adenosine Receptor Ligands: Novel Insights on Structure-Activity Relationships and Perspectives” (Pharmaceuticals, 2022)
